Patent publication US11098044B2, “Imidazopyridinyl compounds and use thereof for treatment of neurodegenerative disorders” (1ST Biotherapeutics, Inc., priority 2019, dated 2021)
Counter-ions that a name gives are not always drawn.

Tests used:
Format in all cases: biochemical
[1] = target: c-Abl (His-tagged recombinant human ABL1) (Homo sapiens (Human), UniProt P00519); assay: c-abl Kinase Assay (ADP-Glo); details: ATP (25 μM), Abltide substrate
Procedure: ADP-Glo assay kit was purchased from Promega. Magnesium chloride (MgCl2), bovine serum albumin (BSA), ethylene glycol-bis(p-aminoethyl ether)-N,N,N′,N′-tetraacetic acid (EGTA), triton X-100, 1,4-dithiothreitol (DTT) and dimethyl sulfoxide (DMSO) were purchased from Sigma-Aldrich. HEPES buffer was purchased from Gibco. ABL1 kinase and Abltide were purchased from Signalchem.
c-Abl kinase activity was measured by Promega's ADP-Glo™ Assay. In this assay, His-tagged recombinant human ABL1 (0.25 ng/μl) is incubated with 5 μL of compounds (0.5% DMSO), 5 μL of Abltide (0.01 μg/μl) and 5 μL of ATP (25 μM) in buffer (50 mM HEPES, 7.5; 10 mM MgCl2; 1 mM EGTA; 0.05% BSA; 0.01% Triton X-100; 2 mM DTT). The assay was started by incubating the reaction mixture in a 96-well plate at 30° C. for 30-min. After the incubation, 25 μL ADP-Glo reagent was added and the reaction was incubated at room temperature for 40-min to stop the reaction and degrade residual ATP. The ADP product was then converted to ATP by adding 50 μL per well of detection reagent. Luminescence was detected after 30-min room temperature incubation with the Molecular device I3X plate reader. The IC50 values were calculated from a series of percent inhibition values determined at a range of inhibitor concentration using software routines as implemented in the GraphPad Prism 7 software and Sigma Plot 13.0.

[2] = target: LRRK2 (WT) (Homo sapiens (Human), UniProt Q5S007); assay: LRRK2 Kinase Assay (Adapta); details: 70 μM ATP, LRRKtide substrate
Chain of LRRK2 (WT) (Q5S007 whole entry): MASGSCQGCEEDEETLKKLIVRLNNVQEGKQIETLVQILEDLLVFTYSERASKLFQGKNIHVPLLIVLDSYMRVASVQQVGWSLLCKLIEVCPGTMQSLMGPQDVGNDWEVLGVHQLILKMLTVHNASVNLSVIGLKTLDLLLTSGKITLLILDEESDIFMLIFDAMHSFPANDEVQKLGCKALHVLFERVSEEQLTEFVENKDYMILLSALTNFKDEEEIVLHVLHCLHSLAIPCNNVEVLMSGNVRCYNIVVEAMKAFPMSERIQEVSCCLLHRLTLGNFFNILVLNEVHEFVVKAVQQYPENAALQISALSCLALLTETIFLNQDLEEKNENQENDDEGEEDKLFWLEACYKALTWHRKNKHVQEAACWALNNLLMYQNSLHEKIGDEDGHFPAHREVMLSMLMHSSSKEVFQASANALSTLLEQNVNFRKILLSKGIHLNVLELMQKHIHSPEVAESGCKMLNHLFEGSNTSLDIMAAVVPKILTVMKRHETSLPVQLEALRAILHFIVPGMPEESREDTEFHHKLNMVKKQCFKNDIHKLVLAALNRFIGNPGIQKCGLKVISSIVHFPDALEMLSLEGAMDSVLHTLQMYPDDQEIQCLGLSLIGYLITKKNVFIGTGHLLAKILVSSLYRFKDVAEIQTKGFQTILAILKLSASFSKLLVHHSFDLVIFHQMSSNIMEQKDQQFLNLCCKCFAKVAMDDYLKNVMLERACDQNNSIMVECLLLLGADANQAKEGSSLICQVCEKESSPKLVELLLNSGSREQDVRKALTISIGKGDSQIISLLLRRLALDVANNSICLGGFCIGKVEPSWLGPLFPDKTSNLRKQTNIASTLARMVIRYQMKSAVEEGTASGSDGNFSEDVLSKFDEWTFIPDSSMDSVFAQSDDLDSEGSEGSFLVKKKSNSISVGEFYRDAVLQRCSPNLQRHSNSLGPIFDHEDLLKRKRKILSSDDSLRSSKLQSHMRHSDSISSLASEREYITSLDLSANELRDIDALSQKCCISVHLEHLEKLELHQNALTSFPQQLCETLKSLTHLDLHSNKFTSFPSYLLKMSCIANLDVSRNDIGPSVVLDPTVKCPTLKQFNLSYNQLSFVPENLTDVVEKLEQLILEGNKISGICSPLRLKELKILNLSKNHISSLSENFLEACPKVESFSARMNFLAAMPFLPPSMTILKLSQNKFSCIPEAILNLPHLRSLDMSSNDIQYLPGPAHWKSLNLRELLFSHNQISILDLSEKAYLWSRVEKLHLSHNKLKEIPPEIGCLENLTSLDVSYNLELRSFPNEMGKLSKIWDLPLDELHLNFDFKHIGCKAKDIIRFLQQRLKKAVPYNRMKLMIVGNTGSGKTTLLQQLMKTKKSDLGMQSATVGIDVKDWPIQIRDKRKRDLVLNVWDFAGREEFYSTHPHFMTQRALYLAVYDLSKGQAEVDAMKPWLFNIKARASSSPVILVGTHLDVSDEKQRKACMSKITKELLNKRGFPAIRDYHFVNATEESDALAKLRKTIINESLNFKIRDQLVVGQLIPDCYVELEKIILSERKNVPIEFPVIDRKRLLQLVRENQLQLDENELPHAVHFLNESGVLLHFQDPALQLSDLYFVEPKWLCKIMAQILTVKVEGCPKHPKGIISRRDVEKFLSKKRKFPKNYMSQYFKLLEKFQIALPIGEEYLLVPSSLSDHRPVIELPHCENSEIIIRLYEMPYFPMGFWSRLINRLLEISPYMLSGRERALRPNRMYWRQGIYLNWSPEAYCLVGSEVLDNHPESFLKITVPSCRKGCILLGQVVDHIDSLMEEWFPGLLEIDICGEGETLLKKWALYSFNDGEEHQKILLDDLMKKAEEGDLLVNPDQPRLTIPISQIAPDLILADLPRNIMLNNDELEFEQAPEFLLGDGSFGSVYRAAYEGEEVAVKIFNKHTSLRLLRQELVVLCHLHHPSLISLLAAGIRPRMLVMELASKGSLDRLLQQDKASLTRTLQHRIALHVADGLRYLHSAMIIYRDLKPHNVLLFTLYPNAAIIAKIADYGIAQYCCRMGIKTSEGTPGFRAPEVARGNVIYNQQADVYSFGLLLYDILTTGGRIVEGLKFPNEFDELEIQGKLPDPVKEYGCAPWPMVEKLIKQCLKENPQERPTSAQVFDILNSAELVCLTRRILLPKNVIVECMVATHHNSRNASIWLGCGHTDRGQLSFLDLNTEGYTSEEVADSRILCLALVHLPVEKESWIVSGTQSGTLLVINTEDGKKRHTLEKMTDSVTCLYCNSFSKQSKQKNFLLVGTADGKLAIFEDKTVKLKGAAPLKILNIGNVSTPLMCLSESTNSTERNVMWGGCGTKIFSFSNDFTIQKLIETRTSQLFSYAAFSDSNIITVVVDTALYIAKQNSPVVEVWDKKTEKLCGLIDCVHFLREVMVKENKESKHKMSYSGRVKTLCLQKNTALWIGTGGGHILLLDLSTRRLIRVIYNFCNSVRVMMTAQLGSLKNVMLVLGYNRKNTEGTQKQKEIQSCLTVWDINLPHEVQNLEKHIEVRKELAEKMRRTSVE
Procedure: (§1) The LRRK2 and LRRK2 G2019S kinase assays were performed using the Adapta™ technology in ThermoFisher Scientific. This experiment was carried out according to the supplier's protocol. Briefly, assay conditions were as follows. The mixture of substrate (LRRKtide) and each kinase was prepared in 50 mM Tris pH 8.5, 0.01% BRIJ-35, 10 mM MgCl2, 1 mM EGTA, 0.02% NaN3. Assays were performed in the presence of 70 μM ATP and 100 μM ATP (KmATP) in LRRK2 and LRRK2 G2019S, respectively. The reaction was progressed at room temperature for 1 hour. Upon completion of kinase reaction, 5 μL of Detection Mix was added and after 60 min incubation time, the emission ratio of 665/615 nm was calculated.

[3] = target: LRRK2 G2019S (Homo sapiens (Human), UniProt Q5S007, G2019S); assay: LRRK2 G2019S Kinase Assay (Adapta); details: 100 μM ATP, LRRKtide substrate; read-out: LRRK2_G2019S IC50
Chain of LRRK2 G2019S (Q5S007 whole entry G2019S): as the sequence (Q5S007 whole entry) above, with G2019S counted along it
Procedure: as §1

Chain of c-Abl (His-tagged recombinant human ABL1) (P00519 whole entry): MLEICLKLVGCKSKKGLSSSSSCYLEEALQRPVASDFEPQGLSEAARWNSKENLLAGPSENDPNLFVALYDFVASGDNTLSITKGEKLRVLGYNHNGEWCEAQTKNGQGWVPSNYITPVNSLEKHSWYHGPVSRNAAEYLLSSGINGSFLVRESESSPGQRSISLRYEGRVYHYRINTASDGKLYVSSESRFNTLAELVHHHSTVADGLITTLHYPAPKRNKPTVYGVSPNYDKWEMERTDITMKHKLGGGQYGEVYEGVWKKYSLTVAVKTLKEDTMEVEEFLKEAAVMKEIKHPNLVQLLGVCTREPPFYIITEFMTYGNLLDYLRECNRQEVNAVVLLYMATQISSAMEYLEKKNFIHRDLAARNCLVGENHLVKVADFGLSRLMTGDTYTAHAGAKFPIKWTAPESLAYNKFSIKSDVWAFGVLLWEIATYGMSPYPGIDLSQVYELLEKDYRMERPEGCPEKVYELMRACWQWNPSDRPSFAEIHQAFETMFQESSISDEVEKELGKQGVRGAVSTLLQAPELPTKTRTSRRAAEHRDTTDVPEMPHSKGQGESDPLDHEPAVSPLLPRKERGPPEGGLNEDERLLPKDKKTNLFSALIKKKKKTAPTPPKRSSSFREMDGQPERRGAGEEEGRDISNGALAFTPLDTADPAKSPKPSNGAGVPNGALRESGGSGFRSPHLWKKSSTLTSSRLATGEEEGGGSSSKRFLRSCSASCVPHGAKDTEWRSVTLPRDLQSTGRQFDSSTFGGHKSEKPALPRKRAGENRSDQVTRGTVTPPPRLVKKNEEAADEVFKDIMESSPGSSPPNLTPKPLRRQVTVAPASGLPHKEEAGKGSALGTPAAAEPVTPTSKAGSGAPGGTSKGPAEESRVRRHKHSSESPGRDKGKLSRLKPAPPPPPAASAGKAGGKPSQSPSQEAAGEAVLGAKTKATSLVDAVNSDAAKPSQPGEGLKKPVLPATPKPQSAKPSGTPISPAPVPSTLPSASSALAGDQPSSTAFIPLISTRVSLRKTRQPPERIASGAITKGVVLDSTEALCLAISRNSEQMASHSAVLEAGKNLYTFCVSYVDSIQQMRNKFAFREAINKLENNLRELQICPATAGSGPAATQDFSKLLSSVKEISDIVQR

Row | Structure (SMILES) | IC50 [1] [nM] | IC50 [2] [nM] | IC50 [3] [nM]
1 | Cc1c(F)cccc1-c1ccc2nc(NC(=O)[C@H]3C[C@@H]3F)cn2c1 (stereo in doubt) [Example 71, 2-fluoro-N-(6-(3-fluoro-2-methylphenyl)imidazo[1,2-a]pyridin-2-yl)cyclopropanecarboxamide] | < 10 | 101 to 1000 | 10 to 100
2 | Cc1c(F)cccc1-c1ccc2nc(NC(=O)[C@@H]3C[C@H]3F)cn2c1 (stereo in doubt) [Example 72, 2-fluoro-N-(6-(3-fluoro-2-methylphenyl)imidazo[1,2-a]pyridin-2-yl)cyclopropanecarboxamide] | < 10 | 10 to 100 | 10 to 100
3 | Cc1c(F)cccc1-c1ccc2nc(NC(=O)[C@H]3C[C@H]3F)cn2c1 (stereo in doubt) [Example 73, 2-fluoro-N-(6-(3-fluoro-2-methylphenyl)imidazo[1,2-a]pyridin-2-yl)cyclopropanecarboxamide] | < 10 | 101 to 1000 | 10 to 100
4 | Cc1c(F)cccc1-c1ccc2nc(NC(=O)[C@@H]3C[C@@H]3F)cn2c1 [Example 1, (1S,2S)-2-fluoro-N-(6-(3-fluoro-2-methylphenyl)imidazo[1,2-a]pyridin-2-yl)cyclopropane-1-carboxamide Hydrochloride] | < 10 | 10 to 100 | 10 to 100
5 | Cc1cccc(F)c1-c1ccc2nc(NC(=O)[C@@H]3C[C@@H]3F)cn2c1 [Example 2, (1S,2S)-2-fluoro-N-(6-(2-fluoro-6-methylphenyl)imidazo[1,2-a]pyridin-2-yl)cyclopropane-1-carboxamide] | < 10 | 101 to 1000 | 10 to 100
6 | Cc1c(F)cccc1-c1ccc2nc(NC(=O)[C@@H]3C[C@@H]3F)c(Cl)n2c1 [Example 3, (1S,2S)—N-(3-chloro-6-(3-fluoro-2-methylphenyl)imidazo[1,2-a]pyridin-2-yl)-2-fluorocyclopropane-1-carboxamide] | 10 to 100 | 101 to 1000 | 101 to 1000
7 | Cc1cccc(C)c1-c1ccc2nc(NC(=O)[C@@H]3C[C@@H]3F)cn2c1 [Example 42, (1S,2S)—N-(6-(2,6-dimethylphenyl)imidazo[1,2-a]pyridin-2-yl)-2-fluorocyclopropane-1-carboxamide] | – | 101 to 1000 | 101 to 1000
8 | COc1ccncc1-c1ccc2nc(NC(=O)[C@@H]3C[C@@H]3F)cn2c1 [Example 48, (1S,2S)-2-fluoro-N-(6-(4-methoxypyridin-3-yl)imidazo[1,2-a]pyridin-2-yl)cyclopropane-1-carboxamide] | – | 10 to 100 | 10 to 100
9 | Cc1c(F)cccc1-c1ccc2nc(NC(=O)[C@@H]3C[C@@H]3F)c(Br)n2c1 [Example 58, (1S,2S)—N-(3-bromo-6-(3-fluoro-2-methylphenyl)imidazo[1,2-a]pyridin-2-yl)-2-fluorocyclopropane-1-carboxamide] | 10 to 100 | – | –
10 | Cc1c(F)cccc1-c1ccc2nc(NC(=O)C3CC3(F)F)cn2c1 (centres unmarked) [Example 77, 2,2-difluoro-N-(6-(3-fluoro-2-methylphenyl)imidazo[1,2-a]pyridin-2-yl)cyclopropanecarboxamide] | – | 101 to 1000 | 10 to 100
11 | Cc1c(-c2ccc3nc(NC(=O)[C@@H]4C[C@@H]4F)cn3c2)cnc2[nH]ccc12 [Example 86, (1S,2S)-2-fluoro-N-(6-(4-methyl-1H-pyrrolo[2,3-b]pyridin-5-yl)imidazo[1,2-a]pyridin-2-yl)cyclopropanecarboxamide] | < 10 | – | –
12 | O=C(Nc1cn2cc(-c3cnc4[nH]ccc4c3Cl)ccc2n1)[C@@H]1C[C@@H]1F [Example 87, (1S,2S)—N-(6-(4-chloro-1H-pyrrolo[2,3-b]pyridin-5-yl)imidazo[1,2-a]pyridin-2-yl)-2-fluorocyclopropanecarboxamide] | < 10 | – | –
13 | Cc1ccccc1-c1ccc2nc(NC(=O)[C@@H]3C[C@@H]3F)cn2c1 [Example 88, (1S,2S)-2-fluoro-N-(6-(o-tolyl)imidazo[1,2-a]pyridin-2-yl)cyclopropanecarboxamide] | < 10 | – | –
14 | O=C(Nc1cn2cc(-c3cccc(F)c3O)ccc2n1)[C@@H]1C[C@@H]1F [Example 89, (1S,2S)-2-fluoro-N-(6-(3-fluoro-2-hydroxyphenyl)imidazo[1,2-a]pyridin-2-yl)cyclopropanecarboxamide] | < 10 | – | –
15 | Nc1c(F)cccc1-c1ccc2nc(NC(=O)[C@@H]3C[C@@H]3F)cn2c1 [Example 90, (1S,2S)—N-(6-(2-amino-3-fluorophenyl)imidazo[1,2-a]pyridin-2-yl)-2-fluorocyclopropanecarboxamide] | < 10 | – | –
16 | Cc1cc2cc[nH]c2cc1-c1ccc2nc(NC(=O)[C@@H]3C[C@@H]3F)cn2c1 [Example 91, (1S,2S)-2-fluoro-N-(6-(5-methyl-1H-indol-6-yl)imidazo[1,2-a]pyridin-2-yl)cyclopropanecarboxamide] | < 10 | – | –
17 | Cc1cc2[nH]ccc2cc1-c1ccc2nc(NC(=O)[C@@H]3C[C@@H]3F)cn2c1 [Example 92, (1S,2S)-2-fluoro-N-(6-(6-methyl-1H-indol-5-yl)imidazo[1,2-a]pyridin-2-yl)cyclopropanecarboxamide] | < 10 | – | –
18 | CN(C)c1c(F)cccc1-c1ccc2nc(NC(=O)[C@@H]3C[C@@H]3F)cn2c1 [Example 93, (1S,2S)—N-(6-(2-(dimethylamino)-3-fluorophenyl)imidazo[1,2-a]pyridin-2-yl)-2-fluorocyclopropanecarboxamide] | 10 to 100 | – | –
19 | Cc1cc2nc[nH]c2cc1-c1ccc2nc(NC(=O)[C@@H]3C[C@@H]3F)cn2c1 [Example 94, (1S,2S)-2-fluoro-N-(6-(5-methyl-1H-benzo[d]imidazol-6-yl)imidazo[1,2-a]pyridin-2-yl)cyclopropanecarboxamide] | < 10 | – | –
20 | CCc1c(F)cccc1-c1ccc2nc(NC(=O)[C@@H]3C[C@@H]3F)cn2c1 [Example 95, (1S,2S)—N-(6-(2-ethyl-3-fluorophenyl)imidazo[1,2-a]pyridin-2-yl)-2-fluorocyclopropanecarboxamide] | < 10 | – | –
21 | O=C(Nc1cn2cc(-c3ccccc3C(F)(F)F)ccc2n1)[C@@H]1C[C@@H]1F [Example 96] | 10 to 100 | – | –
22 | O=C(Nc1cn2cc(-c3cccc(F)c3C3CC3)ccc2n1)[C@@H]1C[C@@H]1F [Example 97, (1S,2S)—N-(6-(2-cyclopropyl-3-fluorophenyl)imidazo[1,2-a]pyridin-2-yl)-2-fluorocyclopropanecarboxamide] | < 10 | – | –
23 | CNc1c(F)cccc1-c1ccc2nc(NC(=O)[C@@H]3C[C@@H]3F)cn2c1 [Example 98, (1S,2S)-2-fluoro-N-(6-(3-fluoro-2-(methylamino)phenyl)imidazo[1,2-a]pyridin-2-yl)cyclopropanecarboxamide] | < 10 | – | –
24 | Cc1cc2ncoc2cc1-c1ccc2nc(NC(=O)[C@@H]3C[C@@H]3F)cn2c1 [Example 99, (1S,2S)-2-fluoro-N-(6-(5-methylbenzo[d]oxazol-6-yl)imidazo[1,2-a]pyridin-2-yl)cyclopropanecarboxamide] | < 10 | – | –
25 | Cc1ccc2[nH]cnc2c1-c1ccc2nc(NC(=O)[C@@H]3C[C@@H]3F)cn2c1 [Example 100, (1S,2S)-2-fluoro-N-(6-(5-methyl-1H-benzo[d]imidazol-4-yl)imidazo[1,2-a]pyridin-2-yl)cyclopropane-1-carboxamide] | 10 to 100 | – | –
26 | Cc1ccc2ocnc2c1-c1ccc2nc(NC(=O)[C@@H]3C[C@@H]3F)cn2c1 [Example 102, (1S,2S)-2-fluoro-N-(6-(5-methylbenzo[d]oxazol-4-yl)imidazo[1,2-a]pyridin-2-yl)cyclopropanecarboxamide] | < 10 | – | –
27 | Cc1cc2ncsc2cc1-c1ccc2nc(NC(=O)[C@@H]3C[C@@H]3F)cn2c1 [Example 103, (1S,2S)-2-fluoro-N-(6-(5-methylbenzo[d]thiazol-6-yl)imidazo[1,2-a]pyridin-2-yl)cyclopropanecarboxamide] | < 10 | – | –
28 | Cc1c(-c2ccc3nc(NC(=O)[C@@H]4C[C@@H]4F)cn3c2)ccc2ncsc12 [Example 104, (1S,2S)-2-fluoro-N-(6-(7-methylbenzo[d]thiazol-6-yl)imidazo[1,2-a]pyridin-2-yl)cyclopropanecarboxamide] | < 10 | – | –
29 | CC(C)c1c(F)cccc1-c1ccc2nc(NC(=O)[C@@H]3C[C@@H]3F)cn2c1 [Example 105, (1S,2S)-2-fluoro-N-(6-(3-fluoro-2-isopropylphenyl)imidazo[1,2-a]pyridin-2-yl)cyclopropanecarboxamide] | 101 to 1000 | – | –
